This assay concerns the target T1, F508delCFTR (Homo sapiens, UniProt P13569, DEL508-508).
T1 construct: expressed in transfected cells; host or cells: CFBE41o- human lung derived epithelial cells (CFBE41o-F508delCFTR-HRP), doxycycline-inducible
In words: Cell Surface Expression-Horse Radish Peroxidase (CSE-HRP) Assay.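 For EC50 (with co-corrector): co-corrector chromenyl benzoic acid corrector at 2 or 3 µM.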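 For Maximum % activity (without co-corrector): % of on-plate positive control chromenyl benzoic acid corrector at 2 or 3 µM.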 Format: cell-based. To be noted: for Maximum % activity (with co-corrector) / Emax: maximum at any tested concentration; for Emax: read-out: Maximum % activity (without co-corrector). Put shortly:
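Corrector compounds were given as 8-point 3-fold series from 20 or 30 μM, with or without a 2 μM co-corrector, for 18-24 h at 33 °C. Surface HRP was read by luminol luminescence as % of positive control; variable-Hill-slope sigmoidal fitting gave EC50 from triplicate plates.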

Setting [1] is: test compound with co-corrector.
The mark [2] stands for this setting: test compound with co-corrector, read-out: EC50 (with co-corrector).
Setting [3] is: test compound without co-corrector.
Where [4] appears, read: test compound without co-corrector, read-out: EC50 (without co-corrector).

Like-named read-outs stand apart in the source and are kept apart here. Marks after values point to notes of the source that are not given here. Bounds are passed on as bounds.

T1 sequence (P13569 with tags, fused parts or gaps DEL508-508): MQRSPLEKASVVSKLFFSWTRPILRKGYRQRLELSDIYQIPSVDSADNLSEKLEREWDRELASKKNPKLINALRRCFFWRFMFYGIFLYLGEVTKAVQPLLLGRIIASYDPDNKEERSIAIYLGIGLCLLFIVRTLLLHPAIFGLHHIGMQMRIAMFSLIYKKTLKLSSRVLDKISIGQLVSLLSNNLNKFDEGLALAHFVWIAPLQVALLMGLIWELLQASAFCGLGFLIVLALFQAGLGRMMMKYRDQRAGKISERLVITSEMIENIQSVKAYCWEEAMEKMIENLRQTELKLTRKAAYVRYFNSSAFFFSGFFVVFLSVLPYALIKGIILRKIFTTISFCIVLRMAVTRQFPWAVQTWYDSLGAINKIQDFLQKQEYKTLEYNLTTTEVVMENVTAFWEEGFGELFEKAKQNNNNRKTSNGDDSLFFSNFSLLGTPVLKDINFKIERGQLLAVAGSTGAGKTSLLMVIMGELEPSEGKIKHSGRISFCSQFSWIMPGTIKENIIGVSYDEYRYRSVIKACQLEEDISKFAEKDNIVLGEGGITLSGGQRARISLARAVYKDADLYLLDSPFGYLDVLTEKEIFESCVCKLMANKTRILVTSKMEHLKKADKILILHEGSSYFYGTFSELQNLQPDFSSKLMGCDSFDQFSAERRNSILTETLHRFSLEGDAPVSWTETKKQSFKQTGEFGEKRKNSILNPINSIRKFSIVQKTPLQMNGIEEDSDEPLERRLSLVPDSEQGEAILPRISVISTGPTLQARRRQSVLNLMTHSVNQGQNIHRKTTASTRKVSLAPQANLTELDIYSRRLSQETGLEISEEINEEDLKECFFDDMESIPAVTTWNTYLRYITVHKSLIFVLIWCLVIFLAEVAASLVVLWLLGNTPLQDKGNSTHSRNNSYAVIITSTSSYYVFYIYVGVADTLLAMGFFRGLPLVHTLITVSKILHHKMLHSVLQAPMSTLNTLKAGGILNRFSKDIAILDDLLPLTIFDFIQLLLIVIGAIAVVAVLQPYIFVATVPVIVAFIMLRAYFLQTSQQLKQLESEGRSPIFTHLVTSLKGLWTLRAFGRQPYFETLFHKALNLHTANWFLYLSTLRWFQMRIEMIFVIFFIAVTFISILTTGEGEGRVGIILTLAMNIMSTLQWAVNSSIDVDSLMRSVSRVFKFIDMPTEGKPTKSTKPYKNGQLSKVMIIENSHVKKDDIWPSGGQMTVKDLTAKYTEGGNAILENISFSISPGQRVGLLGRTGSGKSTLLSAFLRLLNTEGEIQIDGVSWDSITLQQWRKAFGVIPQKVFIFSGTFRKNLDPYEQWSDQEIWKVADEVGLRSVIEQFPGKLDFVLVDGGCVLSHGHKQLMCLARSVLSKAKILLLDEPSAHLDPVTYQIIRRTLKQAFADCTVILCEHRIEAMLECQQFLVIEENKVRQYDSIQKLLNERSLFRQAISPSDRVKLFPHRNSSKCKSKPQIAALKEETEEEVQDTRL

As to `COCCOc1ncc(C)cc1C1(C(=O)NS(=O)(=O)c2cccc3nc(C)ccc23)CC1` [GII-50, 1-[2-(2-methoxyethoxy)-5-methylpyridin-3-yl]-N-(2-methylquinoline-5-sulfonyl)cyclopropane-1-carboxamide], under setting [1], the “Maximum % activity (with co-corrector)” value is reported as “+++ (≥350)”. Also, the EC50 under setting [2] was in the range of 3 to 10 µM. Under setting [3], the “EC50 (without co-corrector)” value is on record as “++^a” and the Emax is over 150%.
As for `CC(C)Oc1ccc(C2(C(=O)NS(=O)(=O)c3cccc4ncccc34)CC2)c(N(C)C)n1` [GII-51, 1-{2-(dimethylamino)-6-[(propan-2-yl)oxy]pyridin-3-yl}-N-(quinoline-5-sulfonyl)cyclopropane-1-carboxamide], the “Maximum % activity (with co-corrector)” value under setting [1] is “++ (≥150 and <350)”. For the same compound, under setting [2], the EC50 was 3 to 10 µM. Further, under setting [3], the “EC50 (without co-corrector)” value was “++^a” and the Emax lay in the range of 50 to 150%.
In the case of `COCCOc1ncc(C)cc1C1(C(=O)NS(=O)(=O)c2cccc3ncccc23)CC1` [GII-52, 1-[2-(2-methoxyethoxy)-5-methylpyridin-3-yl]-N-(quinoline-5-sulfonyl)cyclopropane-1-carboxamide], under setting [1], the “Maximum % activity (with co-corrector)” value was “++ (≥150 and <350)”. Moreover, the EC50 lay within 3 to 10 µM under setting [2] and 3 to 10 µM under setting [4]. Moreover, the Emax under setting [3] lay in the range of 50 to 150%.
Turning to `COCCOc1ncc(C)cc1C1(C(=O)NS(=O)(=O)c2cccc3[nH]ccc23)CC1` [GII-53, N-(1H-indolc-4-sulfonyl)-1-[2-(2-methoxyethoxy)-5-methylpyridin-3-yl]cyclopropane-1-carboxamide], the “Maximum % activity (with co-corrector)” value under setting [1] was “+++ (≥350)”. Further, the EC50 reads like this: under setting [2], 3 to 10 µM; under setting [4], 3 to 10 µM. For the same compound, the Emax under setting [3] was over 150%.
For `CCc1cnc(N2CCC(OC(C)C)CC2)c(C2(C(=O)NS(=O)(=O)c3cccc4ncccc34)CC2)c1` [GII-54, 1-(5-ethyl-2-{4-[(propan-2-yl)oxy]piperidin-1-yl}pyridin-3-yl)-N-(quinoline-5-sulfonyl)cyclopropane-1-carboxamide], the “Maximum % activity (with co-corrector)” value under setting [1] is listed as “+++ (≥350)”. Also, the EC50 lay within 3 to 10 µM under setting [2] and 3 to 10 µM under setting [4]. Under setting [3], the Emax was over 150%.
`CCc1cnc(N2CCC(OC(C)C)CC2)c(C2(C(=O)NS(=O)(=O)c3cccc4nc(C)ccc34)CC2)c1` [GII-55, 1-(5-ethyl-2-{4-[(propan-2-yl)oxy]piperidin-1-yl}pyridin-3-yl)-N-(2-methylquinoline-5-sulfonyl)cyclopropane-1-carboxamide]: under setting [1], the “Maximum % activity (with co-corrector)” value is “+++ (≥350)”. Moreover, the EC50 by setting is: under setting [2], 3 to 10 µM; under setting [4], 3 to 10 µM. The Emax under setting [3] was over 150%.
As for `CCc1cnc(OCCOC)c(C2(C(=O)NS(=O)(=O)c3cccc4nc(C)ccc34)CC2)c1` [GII-56, 1-[5-ethyl-2-(2-methoxyethoxy)pyridin-3-yl]-N-(2-methylquinoline-5-sulfonyl)cyclopropane-1-carboxamide], the “Maximum % activity (with co-corrector)” value under setting [1] is reported as “+++ (≥350)”. The EC50 is, setting by setting: under setting [2], 3 to 10 µM; under setting [4], 3 to 10 µM. The Emax under setting [3] is over 150%.
`CCc1cnc(N2CCC(OC)CC2)c(C2(C(=O)NS(=O)(=O)c3cccc4ncccc34)CC2)c1` [GII-57, 1-[5-ethyl-2-(4-methoxypiperidin-1-yl)pyridin-3-yl]-N-(quinoline-5-sulfonyl)cyclopropane-1-carboxamide]: the “Maximum % activity (with co-corrector)” value under setting [1] was “+++ (≥350)”. For the same compound, the EC50 reads like this: under setting [2], 3 to 10 µM; under setting [4], 3 to 10 µM. Also, under setting [3], the Emax is over 150%.
Take `CCc1cnc(N2CCC(OC)CC2)c(C2(C(=O)NS(=O)(=O)c3cccc4[nH]ccc34)CC2)c1` [GII-58, 1-[5-ethyl-2-(4-methoxypiperidin-1-yl)pyridin-3-yl]-N-(1H-indole-4-sulfonyl)cyclopropane-1-carboxamide]: the “Maximum % activity (with co-corrector)” value under setting [1] is reported as “+++ (≥350)”. In addition, the EC50 is, setting by setting: under setting [2], 3 to 10 µM; under setting [4], 3 to 10 µM. For the same compound, under setting [3], the Emax was over 150%.
As for `CCc1cnc(N2CCC(COC)CC2)c(C2(C(=O)NS(=O)(=O)c3cccc4ncccc34)CC2)c1` [GII-59, 1-{5-ethyl-2-[4-(methoxymethyl)piperidin-1-yl]pyridin-3-yl}-N-(quinoline-5-sulfonyl)cyclopropane-1-carboxamide], the “Maximum % activity (with co-corrector)” value under setting [1] is reported as “+++ (≥350)”. The EC50 under setting [2] lay within 3 to 10 µM and the EC50 under setting [4] is 3 to 10 µM. Moreover, the Emax under setting [3] is over 150%.
Regarding `O=C(NS(=O)(=O)c1cccc2ncccc12)C1(c2ncc(C(F)(F)F)cc2Cl)CC1` [GIII-1], under setting [1], the “EC50 (with co-corrector)” value is on record as “++^a”; the “Maximum % activity (with co-corrector)” value was “++ (≥150 and <350)”. Also, under setting [3], the “EC50 (without co-corrector)” value is “++^a” and the Emax was under 50%.
Turning to `O=C(NS(=O)(=O)c1cccc2ncccc12)C1(c2cc(Cl)cnc2C(F)(F)F)CC1` [GIII-2], the “Maximum % activity (with co-corrector)” value under setting [1] is recorded as “+ (<150)”. The EC50 was over 10 µM under setting [2] and over 10 µM under setting [4]. Besides, the Emax under setting [3] is under 50%.
As for `COc1cc(OC(C)C)c(C2(C(=O)NS(=O)(=O)c3cccc4[nH]ccc34)CC2)cn1` [GIII-3], the “Maximum % activity (with co-corrector)” value under setting [1] is listed as “+++ (≥350)”. The EC50 lay within 3 to 10 µM under setting [2] and 3 to 10 µM under setting [4]. In addition, the Emax under setting [3] is over 150%.
For `CC(C)COc1cnc(Cl)c(C2(C(=O)NS(=O)(=O)c3cccc4ncccc34)CC2)c1` [GIII-5], under setting [1], the “EC50 (with co-corrector)” value is on record as “++^a”; the “Maximum % activity (with co-corrector)” value is “++ (≥150 and <350)”. Further, under setting [3], the “EC50 (without co-corrector)” value is “++^a” and the Emax was under 50%.
`CCc1ccncc1C1(C(=O)NS(=O)(=O)c2cccc3ncccc23)CC1` [GIII-6]: the “Maximum % activity (with co-corrector)” value under setting [1] is reported as “+ (<150)”. Also, the EC50 reads like this: under setting [2], over 10 µM; under setting [4], over 10 µM. Further, the Emax under setting [3] was under 50%.
In the case of `Cc1cnc(F)cc1C1(C(=O)NS(=O)(=O)c2cccc3c2CCCN3)CC1` [GIII-7], under setting [1], the “EC50 (with co-corrector)” value was “++^a”; the “Maximum % activity (with co-corrector)” value was “++ (≥150 and <350)”. Under setting [3], the “EC50 (without co-corrector)” value is given as “++^a” and the Emax is under 50%.
As to `COc1ccc(C2(C(=O)NS(=O)(=O)c3cccc4ncccc34)CC2)c(C)n1` [GIII-8], under setting [1], the “EC50 (with co-corrector)” value was “++^a”; the “Maximum % activity (with co-corrector)” value is “++ (≥150 and <350)”. Further, under setting [3], the “EC50 (without co-corrector)” value was “++^a” and the Emax is 50 to 150%.
For the compound `O=C(NS(=O)(=O)c1cccc2ncccc12)C1(c2cc(C3CC3)cnc2C(F)(F)F)CC1` [GIII-10], under setting [1], the “EC50 (with co-corrector)” value is listed as “++^a”; the “Maximum % activity (with co-corrector)” value is “++ (≥150 and <350)”. For the same compound, under setting [3], the “EC50 (without co-corrector)” value is “++^a” and the Emax lay within 50 to 150%.
`COCCOc1cnc(OC)cc1C1(C(=O)NS(=O)(=O)c2cccc3ncccc23)CC1` [GIII-11]: under setting [1], the “EC50 (with co-corrector)” value was “++^a”; the “Maximum % activity (with co-corrector)” value was “++ (≥150 and <350)”. For the same compound, under setting [3], the “EC50 (without co-corrector)” value is “++^a” and the Emax was in the range of 50 to 150%.
On to `COc1ncc(C2(C(=O)NS(=O)(=O)c3cccc4c3CCCN4)CC2)c(OC)n1` [GIII-12], for which, under setting [1], the “Maximum % activity (with co-corrector)” value is on record as “+ (<150)”. For the same compound, the EC50 was over 10 µM under setting [2] and over 10 µM under setting [4]. In addition, the Emax under setting [3] is under 50%.
`CC(C)Oc1cnc(Cl)c(C2(C(=O)NS(=O)(=O)c3cccc4ncccc34)CC2)c1` [GIII-13]: under setting [1], the “EC50 (with co-corrector)” value was “++^a”; the “Maximum % activity (with co-corrector)” value was “++ (≥150 and <350)”. The Emax under setting [3] is under 50%. Besides, under setting [4], the EC50 is over 10 µM.
Regarding `COc1cc(C2(C(=O)NS(=O)(=O)c3cccc4nc(C)ccc34)CC2)c(OCC(F)F)cn1` [GIII-14], the “Maximum % activity (with co-corrector)” value under setting [1] was “+++ (≥350)”. Further, the EC50 reads like this: under setting [2], 3 to 10 µM; under setting [4], 3 to 10 µM. Further, the Emax under setting [3] was over 150%.
For the compound `COc1ccc(C2(C(=O)NS(=O)(=O)c3cccc4c3CCCN4)CC2)c(C)n1` [GIII-15], under setting [1], the “EC50 (with co-corrector)” value is “++^a”; the “Maximum % activity (with co-corrector)” value is “++ (≥150 and <350)”. For the same compound, under setting [3], the “EC50 (without co-corrector)” value was “++^a” and the Emax is under 50%.
As to `Cc1cnc(F)cc1C1(C(=O)NS(=O)(=O)c2cccc3ncccc23)CC1` [GIII-16], the “Maximum % activity (with co-corrector)” value under setting [1] is “+ (<150)”. In addition, the EC50 reads like this: under setting [2], over 10 µM; under setting [4], over 10 µM. Moreover, the Emax under setting [3] is under 50%.
In the case of `COc1cc(C)c(C2(C(=O)NS(=O)(=O)c3cccc4c3CCCN4)CC2)cn1` [GIII-17], under setting [1], the “EC50 (with co-corrector)” value is recorded as “++^a”; the “Maximum % activity (with co-corrector)” value was “++ (≥150 and <350)”. Under setting [3], the “EC50 (without co-corrector)” value is on record as “++^a” and the Emax lay within 50 to 150%.
Turning to `COc1cc(C2(C(=O)NS(=O)(=O)c3cccc4ncccc34)CC2)c(OCC(F)F)cn1` [GIII-18], under setting [1], the “EC50 (with co-corrector)” value is given as “++^a”; the “Maximum % activity (with co-corrector)” value is “++ (≥150 and <350)”. Under setting [3], the “EC50 (without co-corrector)” value is listed as “++^a” and the Emax is 50 to 150%.
Consider `COc1cc(C2(C(=O)NS(=O)(=O)c3cccc4ncccc34)CC2)c(OC(F)F)cn1` [GIII-19], for which, under setting [1], the “EC50 (with co-corrector)” value was “++^a”; the “Maximum % activity (with co-corrector)” value was “++ (≥150 and <350)”. Also, under setting [3], the “EC50 (without co-corrector)” value was “++^a” and the Emax was 50 to 150%.
In the case of `Cc1ccc2c(S(=O)(=O)NC(=O)C3(c4cc(C5CC5)cnc4N4CCOCC4)CC3)cccc2n1` [GIII-20], under setting [1], the “EC50 (with co-corrector)” value was “++^a”; the “Maximum % activity (with co-corrector)” value is “++ (≥150 and <350)”. Under setting [3], the “EC50 (without co-corrector)” value was “++^a” and the Emax is 50 to 150%.

The term EC50 denotes the midpoint of the concentration-response curve.
